Results from ChEMBL document CHEMBL1201862, “PubChem BioAssay data set” (2004).
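Interpolation was linear, between the two tested concentrations surrounding the appropriate level; five concentrations were tested over 48 hours in 96-well plates. At the GI50, growth is halved.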 Activity calls are given as the source filed them. Cut-off read from the data, not from the text of the source: active = GI50 up to about 1.1 µM and inactive = higher.

What was measured:
Experiment in all cases: DTP human tumour cell line panel, 48 h
[1] = system: ACHN
[2] = system: BT-549
[3] = system: HCC 2998
[4] = system: HCT-116
[5] = system: HCT-15
[6] = system: HL-60
[7] = system: HOP-62
[8] = system: K562
[9] = system: MDA-MB-231
[10] = system: NCI-H522
[11] = system: NCI/ADR-RES
[12] = system: SF-268
[13] = system: SK-MEL-2
[14] = system: SK-OV-3
[15] = system: U-251
[16] = system: UACC-62
[17] = system: UO-31
[18] = system: NCI-H460
[19] = system: OVCAR-5
[20] = system: OVCAR-8

Row | Compound | GI50 [1] | GI50 [2] | GI50 [3] | GI50 [4] | GI50 [5] | GI50 [6] | GI50 [7] | GI50 [8] | GI50 [9] | GI50 [10] | GI50 [11] | GI50 [12] | GI50 [13] | GI50 [14] | GI50 [15] | GI50 [16] | GI50 [17] | GI50 [18] | GI50 [19] | GI50 [20]
1 | C/C(=N\NC(=S)NC(C)(C)C)c1ccccn1 | < 0.01 µM (active) | 3.1 µM (inactive) | 0.235 µM (active) | < 0.01 µM (active) | < 0.01 µM | < 0.01 µM (active) | < 0.0222 µM (active) | < 0.01 µM (active) | < 0.0378 µM (active) | 0.191 µM (active) | < 0.01 µM (active) | 1.39 µM (inactive) | 0.408 µM (active) | 0.305 µM (active) | 0.0252 µM (active) | 0.332 µM (active) | 0.189 µM (active) | – | – | –
2 | CC(=O)NC1C(OCc2ccccc2)OC(CO)C(O)C1OC(C)C(=O)NC(C(=O)NC(CCC(=O)Nc1ccc2c(c1)CN1C(=O)c3ccccc3C1=N2)C(N)=O)C(C)C (stereo not drawn) | > 100 µM (inactive) | > 100 µM (inactive) | > 100 µM (inactive) | > 100 µM (inactive) | > 100 µM | > 100 µM (inactive) | > 100 µM (inactive) | > 100 µM (inactive) | > 100 µM (inactive) | – | > 100 µM (inactive) | > 100 µM (inactive) | > 100 µM (inactive) | > 100 µM (inactive) | > 100 µM (inactive) | > 100 µM (inactive) | > 100 µM (inactive) | > 100 µM (inactive) | > 100 µM (inactive) | > 100 µM (inactive)
3 | COC1CC(OC2C(C)OC(OC3C(C)OC(OC4C(C)OC(O[C@H]5CC[C@@]6(C)C(=CC[C@]7(O)[C@@H]6C[C@@H](OC(=O)/C=C/c6ccccc6)[C@@]6(C)[C@]7(O)CC[C@@]6(O)C(C)=O)C5)CC4OC)CC3OC)CC2OC)OC(C)C1O (stereo partly drawn) | > 12.5 µM (inactive) | > 12.5 µM (inactive) | > 12.5 µM (inactive) | > 12.5 µM (inactive) | > 12.5 µM | 6.75 µM (inactive) | > 12.5 µM (inactive) | > 12.5 µM (inactive) | > 12.5 µM (inactive) | > 12.5 µM (inactive) | > 12.5 µM (inactive) | > 12.5 µM (inactive) | > 12.5 µM (inactive) | > 12.5 µM (inactive) | > 12.5 µM (inactive) | > 12.5 µM (inactive) | 3.11 µM (inactive) | – | > 12.5 µM (inactive) | > 12.5 µM (inactive)
4 | C[N+](C)(C)c1ncnc2c1ncn2C1CCCCO1 (stereo not drawn) | > 100 µM (inactive) | > 100 µM (inactive) | – | > 100 µM (inactive) | – | > 100 µM (inactive) | > 100 µM (inactive) | > 100 µM (inactive) | > 100 µM (inactive) | > 100 µM (inactive) | > 100 µM (inactive) | > 100 µM (inactive) | > 100 µM (inactive) | > 100 µM (inactive) | > 100 µM (inactive) | > 100 µM (inactive) | > 100 µM (inactive) | > 100 µM (inactive) | > 100 µM (inactive) | > 100 µM (inactive)
5 | Cc1cc(=O)nc(S(=O)(=O)NC(=O)Nc2cccc(Cl)c2)[nH]1 | > 100 µM (inactive) | > 100 µM (inactive) | > 100 µM (inactive) | > 100 µM (inactive) | > 100 µM | – | > 100 µM (inactive) | > 100 µM (inactive) | > 68.9 µM (inactive) | > 100 µM (inactive) | > 100 µM (inactive) | > 100 µM (inactive) | > 100 µM (inactive) | > 100 µM (inactive) | 97.3 µM (inactive) | > 100 µM (inactive) | 3.43 µM (inactive) | > 100 µM (inactive) | > 100 µM (inactive) | > 100 µM (inactive)
6 | CC1=C(Br)C(=O)C(C)=C(Br)C1=O.Cc1c(O)c(Br)c(C)c(O)c1Br | 1.68 µM (inactive) | 5.33 µM (inactive) | – | 1.69 µM (inactive) | 2.07 µM | 1.12 µM (active) | 12 µM (inactive) | 1.41 µM (inactive) | 4.4 µM (inactive) | 1.99 µM (inactive) | 4.31 µM (inactive) | 4.17 µM (inactive) | 3.53 µM (inactive) | 15.6 µM (inactive) | 6.47 µM (inactive) | 5.55 µM (inactive) | 1.85 µM (inactive) | 6.71 µM (inactive) | 10.8 µM (inactive) | 1.93 µM (inactive)
7 | CCOC(=O)c1ccc(Nc2cnc3ccc(C(F)(F)F)cc3n2)cc1 | 15.2 µM (inactive) | 15.8 µM (inactive) | 12.9 µM (inactive) | 14.8 µM (inactive) | 14.8 µM | 15.9 µM (inactive) | 20.6 µM (inactive) | 19 µM (inactive) | 23.4 µM (inactive) | – | 12.8 µM (inactive) | 12.6 µM (inactive) | 15.1 µM (inactive) | 35.9 µM (inactive) | 16.8 µM (inactive) | 13.6 µM (inactive) | 20.1 µM (inactive) | 14.2 µM (inactive) | 24.9 µM (inactive) | 12.8 µM (inactive)
8 | COc1ccc(S(=O)(=O)NC(CCC(=O)NN)C(=O)NN)cc1 (stereo not drawn) | > 100 µM (inactive) | > 100 µM (inactive) | – | > 100 µM (inactive) | > 100 µM | > 100 µM (inactive) | > 100 µM (inactive) | > 100 µM (inactive) | > 100 µM (inactive) | > 100 µM (inactive) | > 100 µM (inactive) | – | > 100 µM (inactive) | > 100 µM (inactive) | > 100 µM (inactive) | > 100 µM (inactive) | > 100 µM (inactive) | > 100 µM (inactive) | > 100 µM (inactive) | > 100 µM (inactive)
9 | COC(=O)/C=C/c1cc2c(cc1-c1c(C(=O)O)cc(OC)c(OC)c1OC)OCO2 | > 10 µM (inactive) | > 10 µM (inactive) | > 10 µM (inactive) | > 10 µM (inactive) | > 10 µM | > 10 µM (inactive) | > 10 µM (inactive) | > 10 µM (inactive) | > 10 µM (inactive) | > 10 µM (inactive) | > 10 µM (inactive) | > 10 µM (inactive) | – | > 10 µM (inactive) | > 10 µM (inactive) | > 10 µM (inactive) | – | – | – | > 10 µM (inactive)
10 | CN(CC(=O)O)Cc1c(O)c(Cl)cc(Cl)c1Cl | 36.5 µM (inactive) | 75.5 µM (inactive) | – | 12.5 µM (inactive) | 21.8 µM | 13.9 µM (inactive) | 29 µM (inactive) | – | 45.2 µM (inactive) | 27.8 µM (inactive) | 26.8 µM (inactive) | 21.4 µM (inactive) | 27.2 µM (inactive) | > 100 µM (inactive) | 17 µM (inactive) | 23.1 µM (inactive) | 23.2 µM (inactive) | 5.13 µM (inactive) | 26.5 µM (inactive) | 29.2 µM (inactive)
11 | CC(C)(C)[Si](C)(C)OCCCCC1CC2(S(=O)(=O)C3=CC=C=C=C3)ON1CC2S(=O)(=O)c1ccccc1 (stereo not drawn) | > 100 µM (inactive) | > 100 µM (inactive) | > 100 µM (inactive) | > 100 µM (inactive) | > 100 µM | – | > 100 µM (inactive) | > 100 µM (inactive) | > 100 µM (inactive) | – | > 100 µM (inactive) | > 100 µM (inactive) | > 100 µM (inactive) | > 100 µM (inactive) | > 100 µM (inactive) | > 100 µM (inactive) | > 100 µM (inactive) | > 100 µM (inactive) | > 100 µM (inactive) | > 100 µM (inactive)
12 | Cc1ccc(-c2cs/c(=N\c3c(C)n(C)n(-c4ccccc4)c3=O)n2CCO)cc1 | 46.5 µM (inactive) | 74.3 µM (inactive) | > 100 µM (inactive) | – | > 100 µM | > 100 µM (inactive) | > 100 µM (inactive) | 97.3 µM (inactive) | > 100 µM (inactive) | – | 65.6 µM (inactive) | > 100 µM (inactive) | > 100 µM (inactive) | > 100 µM (inactive) | > 100 µM (inactive) | > 100 µM (inactive) | > 100 µM (inactive) | > 100 µM (inactive) | > 100 µM (inactive) | > 100 µM (inactive)
13 | CCOC(=O)/C(=N\OC)C(O)C(F)(F)F (stereo not drawn) | > 100 µM (inactive) | > 100 µM (inactive) | > 100 µM (inactive) | > 100 µM (inactive) | > 100 µM | > 100 µM (inactive) | > 100 µM (inactive) | > 100 µM (inactive) | > 100 µM (inactive) | > 100 µM (inactive) | > 100 µM (inactive) | > 100 µM (inactive) | > 100 µM (inactive) | > 100 µM (inactive) | > 100 µM (inactive) | > 100 µM (inactive) | > 100 µM (inactive) | – | > 100 µM (inactive) | > 100 µM (inactive)
14 | Cc1ccc(CSC(=N)Nc2ccccc2)cc1C | 33.3 µM (inactive) | 22.3 µM (inactive) | – | 16.6 µM (inactive) | 23.5 µM | 30.3 µM (inactive) | 23.7 µM (inactive) | 21.2 µM (inactive) | 16.2 µM (inactive) | 15.8 µM (inactive) | 20.4 µM (inactive) | 17 µM (inactive) | 16.7 µM (inactive) | 24.8 µM (inactive) | 16.1 µM (inactive) | 13.1 µM (inactive) | – | 18.6 µM (inactive) | 20.2 µM (inactive) | 19 µM (inactive)
15 | Oc1ccc(-c2nc3ccc(Cl)cc3s2)cc1 | 76.7 µM (inactive) | 18.7 µM (inactive) | – | 16 µM (inactive) | 15.7 µM | 13.8 µM (inactive) | – | 28.2 µM (inactive) | 22.6 µM (inactive) | 16.3 µM (inactive) | 23.4 µM (inactive) | 17.2 µM (inactive) | 18.4 µM (inactive) | 20.2 µM (inactive) | 19.7 µM (inactive) | 16.9 µM (inactive) | 14.2 µM (inactive) | 18.8 µM (inactive) | 17.9 µM (inactive) | 19.3 µM (inactive)
